Experimental data as given in patent US8614068B2, “Process for producing hepcidin” (Hellenic Pasteur Institute, priority 2007, dated 2013).
Entries after “also recorded” stand apart in the source; their conditions may differ.

Target: T1, FPN1-GFP (Mus musculus, UniProt Q9JHI9)
T1 construct: expressed in transfected cells
T1 sequence (Q9JHI9 1-570): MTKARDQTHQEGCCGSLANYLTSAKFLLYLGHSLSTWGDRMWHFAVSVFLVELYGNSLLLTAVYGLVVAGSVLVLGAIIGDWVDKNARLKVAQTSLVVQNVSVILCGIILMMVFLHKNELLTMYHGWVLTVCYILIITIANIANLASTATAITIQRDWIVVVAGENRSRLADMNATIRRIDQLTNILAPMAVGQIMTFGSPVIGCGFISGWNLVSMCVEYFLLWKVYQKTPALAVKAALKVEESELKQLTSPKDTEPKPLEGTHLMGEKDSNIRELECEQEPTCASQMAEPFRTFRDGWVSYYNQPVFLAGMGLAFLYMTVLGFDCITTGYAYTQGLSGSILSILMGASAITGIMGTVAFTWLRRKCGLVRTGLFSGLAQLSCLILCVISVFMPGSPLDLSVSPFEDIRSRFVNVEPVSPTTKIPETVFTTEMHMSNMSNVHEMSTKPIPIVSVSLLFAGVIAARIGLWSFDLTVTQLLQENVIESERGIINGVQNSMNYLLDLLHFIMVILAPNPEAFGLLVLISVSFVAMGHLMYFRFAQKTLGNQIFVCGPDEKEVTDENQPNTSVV
Experiment: FPN1-GFP internalization by confocal microscopy in HEK293-Fpn cells
Type: cell-based
Details: HEK293-Fpn cells induced with ponasterone 24 h, treated 3 h
Procedure: A, RAW 264.7 macrophages were treated with 11 μM and 10 μM of synthetic hepcidin-25 (having the sequence of SEQ ID NO. 2) and Hep-25His (having the sequence of SEQ ID NO. 6) for 4 h at 37° C. or with PBS as negative control. Cell lysates were subjected to 8% SDS PAGE and Western Blot with antibodies against TfR1, Ferroportin and actin as loading control. B, The signal density of ferroportin, TfR1 and actin protein bands from two independent experiments were quantified by densitometry and their intensity relative to actin was calculated. Data are expressed as mean of ratios of TfR1 or to actin levels ±S.D. for each experimental condition. *p<0.01. […] Hep25-His, negative peptide and PBS was incubated with Raw 264.7 macrophages, followed by cross-linking with DSS. Cell lysates were incubated with Ni2-NTA and eluates were analyzed by Western blot using anti-FPN1 Ab. […] Fluorescence was visualized with a Leica TCS confocal microscope. […]
Furthermore, the internalization of FPN1 in the presence of Hep25-His (having the sequence of SEQ ID NO. 6) was analyzed in HEK293-Fpn cells by confocal microscopy; these cells express an FPN1-GFP fusion construct on the plasma membrane (Nemeth, E., Tuttle, M. S., Powelson, J., Vaughn, M. B., Donovan, A., Ward, D. M. Ganz, T., Kaplan, J. (2004) Science 306, 2090-3).

Substance: hepcidin-25His [Hep-25His]
- internalization of FPN1-GFP: promoted the internalization of FPN1-GFP; also recorded: causes the internalization of FPN1-GFP
